Experimental data reported in US20040039023A1, “Therapeutic agents” (priority 2000, published 2004).

Assays:
[1] = biological target: α1-adrenoceptors; assay: Inhibition of [7-methoxy-3H]prazosin binding to α1-adrenoceptors, rat whole cortical tissue; conditions: ligand [7-methoxy-3H]prazosin 0.1 nM
Experimental: Whole cortical tissue from the brains of male Charles River CD rats weighing between 150-250 g were homogenised in ice-cold 50 mM Tris-HCl, pH 7.6 (at 25° C.; 1:40 w/v) and centrifuged at 1000 g at 4° C. for 10 minutes. The supernatant was centrifuged at 30,000 g at 4° C. for 10 minutes. The pellet was rehomogenised in 50 mM Tris-HCl, pH 7.6 (1:40 w/v) and centrifuged at 30,000 g at 4° C. for 10 minutes. The final pellet was resuspended in 50 mM Tris-HCl, pH 7.6 (equivalent to 12.5 mg wet weight of tissue/ml) and used immediately in the binding assay. Aliquots (400 μl; equivalent to 5 mg wet weight of tissue/tube) of this suspension were added to tubes containing the ligand (50 μl; 0.1 nM) and distilled water (50 μl; total binding) or phentolamine (50 μl; 5 μM; non-specific binding) or test compound (50 μl; at a single concentration of 10^−6M or at 10 concentrations ranging from 10^−11-10^−3M). The ligand was [7-methoxy-^3H]prazosin and the mixture was incubated at 30° C. for 30 minutes before the incubation was terminated by rapid filtration.
(§1) The filters were washed with ice-cold Tris-HCl buffer and dried. The filters were punched out into vials, scintillation fluid added and radioactivity determined by liquid scintillation counting. The percentage displacement of specific binding of the tritiated ligand was calculated for the single concentration (10^−6 M) of test compound. Displacement curves were then produced for those compounds which displaced ≧50% of specific binding of the tritiated ligand at 10^−6 M using a range of concentrations of the compound. The concentration which gave 50% inhibition of specific binding (IC50) was obtained from the curve. The inhibition coefficient Ki was then calculated using the formula [formula]
(§2) in which [ligand] is the concentration of the tritiated ligand used and KD is the equilibrium dissociation constant for the ligand.

[2] = system: apomorphine-induced climbing in mice; assay: Antagonism of apomorphine-induced climbing in mice; assay type: in vivo; conditions: male mice; for ED50: Mus musculus, po 30 minutes before apomorphine 0.88 mg/kg sc, free base equivalents, read-out: ED50 (dose causing 50% of the control score); for duration: po, antagonism of apomorphine-induced climbing
Experimental: Antagonism of Apomorphine-Induced Climbing in Mice Groups of 10 male mice weighing […] (max. range 10 g) were treated with test compound or control vehicle by po administration. 30 minutes later, mice were injected subcutaneously with apomorphine (0.88 mg/kg). Immediately after the apomorphine injection the mice were placed in the test cages and the climbing behaviour of each mouse was assessed at 10 and 20 minutes on a simple 0-2 ranking scale. The ED50 values (dose causing 50% of the control score) for the test compounds and 95% confidence limits were calculated.

[3] = biological target: T1, 5-HT1A receptors (Rattus norvegicus, UniProt P19327); assay: Inhibition of [3H]8-OH-DPAT binding to 5-HT1A receptors, rat hippocampal tissue; conditions: ligand [3H]8-OH-DPAT 2 nM
T1 construct: Hippocampal tissue from the brains of male Charles River CD rats; from tissue; host or cells: rat hippocampus membrane homogenate
T1 sequence (P19327 1-422): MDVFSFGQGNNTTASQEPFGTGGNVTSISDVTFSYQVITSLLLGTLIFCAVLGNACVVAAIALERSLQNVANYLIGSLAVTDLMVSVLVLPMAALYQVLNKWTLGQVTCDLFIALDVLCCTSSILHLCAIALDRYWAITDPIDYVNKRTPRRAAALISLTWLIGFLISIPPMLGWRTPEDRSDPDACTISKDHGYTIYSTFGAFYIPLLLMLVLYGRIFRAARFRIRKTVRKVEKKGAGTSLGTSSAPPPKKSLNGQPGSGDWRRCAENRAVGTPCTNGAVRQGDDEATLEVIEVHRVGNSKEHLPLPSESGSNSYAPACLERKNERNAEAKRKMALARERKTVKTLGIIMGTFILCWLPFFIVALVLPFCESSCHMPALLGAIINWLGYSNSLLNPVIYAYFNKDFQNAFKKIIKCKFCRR
Experimental: Hippocampal tissue from the brains of male Charles River CD rats weighing between 150-250 g were homogenised in ice-cold 50 mM Tris-HCl buffer (pH 7.7) when measured at 25° C., 1:40 w/v) and centrifuged at 30,000 g at 4° C. for 10 minutes. The pellet was rehomogenised in the same buffer, incubated at 37° C. for 10 minutes and centrifuged at 30,000 g at 4° C. for 10 minutes. The final pellet was resuspended in 50 mM Tris-HCl buffer (pH 7.7) containing 4 mM CaCl2, 0.1% L-ascorbic acid and 10 μM pargyline hydrochloride (equivalent to 6.25 mg wet weight of tissue/ml) and used immediately in the binding assay. Aliquots (400 μl; equivalent to 2.5 mg wet weight of tissue/tube) of this suspension were added to tubes containing the ligand (50 μl; 2 nM) and distilled water (50 μl; total binding) or 5-HT (50 μl; 10 μM; non-specific binding) or test compound (50 μl; at a single concentration of 10^−6 M or at 10 concentrations ranging from 10^−11-10^−3 M). The ligand was [^3H]8-hydroxy-2-(dipropylamino)tetralin ([^3H]8-OH-DPAT) and the mixture was incubated at 25° C. for 30 minutes before the incubation was terminated by rapid filtration.
as §1, §2

[4] = biological target: T2, D2 dopamine receptors (Rattus norvegicus, UniProt P61169); assay: Inhibition of tritiated (S)-sulpiride binding to D2 dopamine receptors, rat striatal tissue; conditions: ligand tritiated (S)-sulpiride 1 nM
T2 construct: Striatal tissue from the brains of male Charles River CD rats; from tissue; host or cells: rat striatum membrane homogenate
T2 sequence (P61169 whole entry): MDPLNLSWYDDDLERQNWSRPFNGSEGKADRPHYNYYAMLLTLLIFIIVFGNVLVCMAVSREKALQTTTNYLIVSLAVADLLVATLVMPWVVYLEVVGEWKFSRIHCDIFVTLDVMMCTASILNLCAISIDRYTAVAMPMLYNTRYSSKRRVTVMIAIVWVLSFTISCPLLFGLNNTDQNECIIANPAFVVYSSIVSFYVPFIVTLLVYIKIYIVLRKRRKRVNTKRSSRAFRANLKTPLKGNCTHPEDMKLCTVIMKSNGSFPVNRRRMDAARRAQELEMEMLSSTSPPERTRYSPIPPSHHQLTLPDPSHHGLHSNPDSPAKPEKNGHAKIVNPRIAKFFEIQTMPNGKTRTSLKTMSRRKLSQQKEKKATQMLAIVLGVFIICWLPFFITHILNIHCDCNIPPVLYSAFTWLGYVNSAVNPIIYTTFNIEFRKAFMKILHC
Experimental: Striatal tissue from the brains of male Charles River CD rats weighing between 140-250 g were homogenised in ice-cold 50 mM Tris-HCl buffer (pH 7.7 when measured at 25° C.) and centrifuged at 40,000 g for 10 minutes. The pellet was resuspended in Tris salts buffer (50 mM Tris-HCl buffer containing 120 mM NaCl, 5 mM KCl, 2 mM CaCl2 and 1 mM MgCl2 with the addition of 6 mM ascorbic acid; pH 7.7 when measured at 25° C.), and again centrifuged at 40,000 g for 10 minutes. The final pellet was stored at −80° C. Before each test the pellet was resuspended in Tris salts buffer (equivalent to 2 mg wet weight of tissue/ml). […]
The filters were washed with ice-cold Tris-HCl buffer and dried. The filters were punched out in to vials, scintillation fluid added and were left for about 20 hours before being counted by scintillation spectrophotometry. The percentage displacement of specific binding of the tritiated ligand was calculated for the single concentration (10^−6 M) of test compound. […] The inhibition coefficient Ki was then calculated using the formula [formula] […]

Compound	Ki [1]	ED50 [2]	duration [2]	Ki [3]	Ki [4]	melting point
COc1ccccc1N1CCC(CNC[C@H]2COc3ccc(Cl)cc3O2)CC1 [Comparative Example A, (S)-(−)-N-(7-Chloro-1,4-benzodioxan-2-ylmethyl)-1-(1-(2-methoxyphenyl)piperid-4-yl)methylamine, reference compound]	53 nM	5 mg/kg	[>6 h]	22 nM		
Oc1ccccc1N1CCC(CNC[C@H]2COc3ccc(Cl)cc3O2)CC1 [Example 1, (S)-(−)-2-{4-[N-(7-chloro-2,3-dihydro-1,4-benzodioxin-2-ylmethyl)aminomethyl]piperidino}phenol]	101 nM	3 mg/kg	[>6 h]	12 nM	11 nM	84 to 86 °C
Oc1ccccc1N1CCC(CNC[C@H]2COc3ccc(C(F)(F)F)cc3O2)CC1 [Example 2, (S)-(−)-2-{4-[N-(7-trifluoromethyl-2,3-dihydro-1,4-benzodioxin-2-ylmethyl)aminomethyl]piperidino}phenol]	573 nM	0.6 mg/kg	[>4 h]	37 nM	25 nM	
